Test results reported in PubChem BioAssay (NCI).
Values joined by “and” are separate entries in the source; they are usually repeats but may differ in a detail not shown here. Identical values can stand only once.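 Five compound concentrations were applied to cells in 96-well plates for 48 hours; endpoints were derived by simple linear interpolation of the resulting dose-response curve. GI50 = concentration required for 50% inhibition of growth. TGI: concentration producing complete growth inhibition.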

What was measured:
Test in all cases: DTP human tumour cell line panel, 48 h
CCRF-CEM leukemia = system: CCRF-CEM leukemia
DU-145 prostate = system: DU-145 prostate
EKVX NSCLC = system: EKVX NSCLC
HCT-15 colon = system: HCT-15 colon
HL-60(TB) leukemia = system: HL-60(TB) leukemia
RPMI-8226 leukemia = system: RPMI-8226 leukemia
RXF 393 renal = system: RXF 393 renal
SF-295 CNS = system: SF-295 CNS
SW-620 colon = system: SW-620 colon
U251 CNS = system: U251 CNS

Row | SMILES | GI50 (CCRF-CEM leukemia) [µM] | TGI (CCRF-CEM leukemia) [µM] | GI50 (DU-145 prostate) [µM] | TGI (DU-145 prostate) [µM] | GI50 (EKVX NSCLC) | TGI (EKVX NSCLC) | GI50 (HCT-15 colon) | TGI (HCT-15 colon) [µM] | GI50 (HL-60(TB) leukemia) | TGI (HL-60(TB) leukemia) [µM] | GI50 (RPMI-8226 leukemia) | TGI (RPMI-8226 leukemia) [µM] | GI50 (RXF 393 renal) [µM] | TGI (RXF 393 renal) [µM] | GI50 (SF-295 CNS) [µM] | TGI (SF-295 CNS) [µM] | GI50 (SW-620 colon) [µM] | TGI (SW-620 colon) | GI50 (U251 CNS) [µM] | TGI (U251 CNS) [µM]
1 | CN(C)c1ccc(/C=C/C(=O)c2ccc(Nc3nc(Nc4ccc(F)cc4)nc(Nc4ccc(F)cc4)n3)cc2)cc1 | 5.61 | > 100 | 25.1 | 91.6 | 19.9 µM | 83 µM | 19.4 µM | > 100 | 12.2 µM | > 100 | 7.62 µM | > 100 | 7.84 | 26.1 | 15 | 41.3 | 18 | 46 µM | 17.2 | 55.1
2 | COc1ccc(-c2nn(-c3cccc(Cl)c3)cc2/C=C2\NC(=S)N(c3ccc(Cl)cc3)C2=O)cc1 | 2.98 | 11 | 8.75 | > 25 | 4.32 µM | 15.8 µM | 7.94 µM | > 25 | 8.61 µM | > 25 | 3.53 µM | 15.9 | 3.02 | 9.97 | 4.63 | 12 | 8.51 | > 25 µM | 2.86 | 6.99
3 | Cc1nnc(C[C@@H]2C=C(c3ccc(Cl)cc3)c3ccccc3-n3c(C)nnc32)o1 | 8.6 | > 94.1 | 17.6 | > 100 | 6.01 µM | > 100 µM | 0.461 µM | 40.2 | 0.25 µM | 35.5 | 0.135 µM | 19.8 | 1.39 | 18.9 | 1.71 | 43 | 12 | 68.7 µM | 4.81 | > 76.1
4 | Cc1cc(=O)oc2c(C3=NN(C=O)C(c4ccccc4)C3)c(O)ccc12 (stereo not drawn) | – | > 100 | – | > 100 | – | > 100 µM | – | > 100 | – | > 100 | – | > 100 | – | > 80.5 | – | > 31.1 | – | > 100 µM | – | > 100
5 | O=C(COc1ccc(/C=C2\Oc3ccc4ccccc4c3C2=O)cc1)c1ccc([N+](=O)[O-])cc1 | 1.81 | 4.12 | 10.9 | 23.1 | 47.6 µM | > 100 µM | 7.6 µM | 20.4 | 2.61 µM | 16.2 | 1.6 µM | 5.11 | 8.55 | 60.5 | 13.7 | 36.4 | 3.88 | 14.1 µM | 13.1 | 25.8
6 | Cc1cc(F)c(C(=O)Nc2cccc(-c3nncn3C(C)C)n2)cc1-n1cnc(C2CC2)c1 | 21 | > 100 | – | > 100 | 13.1 µM | 52.3 µM | 15.6 µM | 96.4 | 16.2 µM | 45.3 | 7.54 µM | 35.3 | 20.6 | 49.1 | 13.3 | 80.9 | 20.8 | > 100 µM | 17.1 | > 100
7 | NC(N)=NN=c1c(=O)c2ccccc2c1=O | 2.14 | 5.27 | 1.9 | 3.39 | 18.7 µM | 34.8 µM | 1.88 µM | 3.84 | 21.5 µM | 48.6 | 5.7 µM | 29.6 | 13.1 | 25.9 | 13.6 | 27.7 | 1.96 | 4.76 µM | 4.36 | 15.8
8 | O=C(O)C1C2C=CC(O2)C1C(=O)NCc1cccnc1 (stereo not drawn) | – | > 100 | – | > 100 | – | > 100 µM | – | > 100 | – | > 100 | – | > 100 | – | > 100 | – | > 100 | – | > 100 µM | – | > 100
9 | CC[C@@]1(O)C(=O)OCc2c1cc1n(c2=O)Cc2cc3cc(Cl)ccc3nc2-1 | – | > 100 | 0.00491 | – | 0.282 µM and 0.302 µM | 5.73 µM and 4.9 µM | 0.0559 µM and 0.106 µM | 10.5 | 0.00156 µM and 0.0131 µM | – | 0.0132 µM and 0.0334 µM | – | 0.0106 | 0.137 | < 0.001 | 0.0893 | – | 2.37 µM and 5.23 µM | 0.00197 | 0.0234
10 | CNC(=O)c1cc(Oc2ccc3nc(NC(=O)Nc4ccc(CN5CCOCC5)c(C(F)(F)F)c4)sc3c2)ccn1 | 2.73 | > 100 | 2.73 | 9.4 | 2.1 µM | 7.55 µM | 2.08 µM | 7.09 | 2.7 µM | 7.41 | 1.72 µM | 4.49 | 1.81 | 4.03 | 1.9 | 4.73 | 3.31 | 10 µM | 1.77 | 3.54
11 | COc1ccc2[nH]c(Cl)c(/C=C3/C(=O)Nc4ccccc43)c2c1 | 0.216 | 0.737 | 0.279 | 2.35 | 2.07 µM | 3.96 µM | 0.611 µM | 3.36 | 0.449 µM | 2.84 | 0.213 µM | 0.591 | 0.381 | 6.92 | 0.574 | 1.28 | 0.366 | 7.58 µM | 0.861 | 2.75
12 | C[C@@H](Nc1nc(N[C@H](C)C(F)(F)F)nc(-c2cccc(Cl)n2)n1)C(F)(F)F | > 100 | > 100 | 41.6 | > 100 | 70.7 µM | > 100 µM | > 100 µM | > 100 | > 100 µM | > 100 | > 100 µM | > 100 | 23.2 | 94.7 | 35.2 | > 100 | > 100 | > 100 µM | 20.8 | 54
13 | COc1ccc(-n2cc(-c3cc(OC)c(OC)c(OC)c3)nc2SCc2ccc(Cl)cc2)cc1OC | > 100 | > 100 | > 100 | > 100 | 95.3 µM | > 100 µM | 30.5 µM | > 100 | 78 µM | > 100 | > 100 µM | > 100 | > 100 | > 100 | > 100 | > 100 | > 100 | > 100 µM | > 100 | > 100
14 | C[C@H]1CCC/C=C/C2CC(OC(=O)CN(C)C)CC2C(OC(=O)CN(C)C)/C=C/C(=O)O1 (stereo partly drawn) | 0.647 | > 40.6 | 0.615 | > 100 | 0.558 µM | > 87.8 µM | 0.272 µM | > 32.4 | 0.682 µM | 7.47 | 0.712 µM | > 81.4 | 0.0972 | 0.314 | 1.11 | 37.2 | 0.318 | 1.95 µM | 0.861 | 46.8
15 | Oc1ccc(NC(=S)Nc2ccccc2)cc1 | > 100 | > 100 | > 100 | > 100 | > 100 µM | > 100 µM | > 100 µM | > 100 | > 100 µM | > 100 | > 100 µM | > 100 | > 100 | > 100 | > 100 | > 100 | > 100 | > 100 µM | > 100 | > 100
16 | N#C/C(=C\c1ccc(O)c(O)c1)C(=O)NCc1ccc(C(F)(F)F)cc1 | 2.14 | 14.7 | 16.3 | > 62.3 | 19.7 µM | > 61.8 µM | 4.05 µM | 41.1 | 11.6 µM | > 66.5 | 3.21 µM | – | 12.2 | 41 | 3.39 | 11.8 | 7.68 | 37.8 µM | 5.67 | 28.9
17 | CC1(C)OB(c2ccc(N(CCOS(C)(=O)=O)CCOS(C)(=O)=O)cc2)OC1(C)C | 1.98 | > 39.6 | 23.3 | 55.7 | 23.4 µM | 58.7 µM | 15.6 µM | 41 | 2.85 µM | 39.3 | 7.75 µM | > 72.5 | 24.6 | > 67.4 | 12.9 | > 55 | 17.1 | > 100 µM | 8.66 | 34.7
